The record followed here is patent US8604016B2, “Heterocyclic inhibitors of glutaminase” (Calithera Biosciences Inc., priority 2011, dated 2013).

This assay addresses recombinant form of Glutaminase 1 (GAC) (Homo sapiens, UniProt O94925). Briefly: Recombinant Enzyme Assay (GAC coupled to GDH, NADH absorbance, no preincubation). Format: biochemical. Conditions: read-out: GAC Delta N2 IC50 no preinc. The method, then: Enzymatic reaction was started with the addition of 50 μL of enzyme solution (50 mM Tris-HCl pH 8.0, 0.2 mM EDTA, 150 mM K2HPO4, 0.1 mg/ml BSA, 1 mM DTT, 10 ppm antifoam, 4 units/ml GDH, 4 mM adenosine diphosphate, and 4 nM GAC) and read in a Molecular Devices M5 plate reader at 20° C. The plate reader was configured to read absorbance (λ=340 nm) in kinetic mode for 15 minutes. Data was recorded as milli-absorbance units per minute and slopes were compared to a control compound and a DMSO-only control on the same plate. Compounds with slopes less than the DMSO control were considered inhibitors and plate variability was assessed using the control compound.

Like-named read-outs stand apart in the source and are kept apart here.

For `O=C(Cc1c(F)cccc1F)Nc1nnc(CCCCc2nnc(NC(=O)Cc3c(F)cccc3F)s2)s1` [Compound 293], where the note is “no preincubation”, the IC50 turned out to be 240 nM.
For the molecule `O=C(Cc1ccccc1CO)Nc1nnc(CCCCc2nnc(NC(=O)Cc3ccccc3CO)s2)s1` [Compound 208], the IC50 was determined as 170 nM.
Turning to `CN(C)c1ccc(CC(=O)Nc2nnc(CCCCc3nnc(NC(=O)Cc4ccc(N(C)C)cc4)s3)s2)cc1` [Compound 164], the IC50 (no preincubation) was 240 nM.
Still for that read-out and setting: as for `C[C@H](O)C(=O)Nc1nnc(CCCCc2nnc(NC(=O)Cc3ccccc3)s2)s1` [Compound 321], the figure is 2500 nM; as for `CCCC(=O)OCN(C(=O)Cc1ccccc1)c1nnc(CCSCCc2nnc(NC(=O)Cc3ccccc3)s2)s1` [Compound 7], above 50000 nM.
The same measure, in the same setting: as for `O=C(Cc1ccccc1)Nc1nnc(CCSCc2nnc(NC(=O)[C@@H](O)c3ccccc3)s2)s1` [Compound 377], the figure is 280 nM; as for `CO[C@H](C(=O)Nc1nnc(CCCCc2nnc(NC(=O)[C@@H](OC)c3ccccc3)s2)s1)c1ccccc1` [Compound 148], 590 nM; as for `COCCC(=O)Nc1nnc(CCCCc2nnc(NC(=O)CCOC)s2)s1` [Compound 100], 8100 nM.
The same measure, in the same setting: as for `CC(=O)O[C@H](C(=O)Nc1nnc(CCCCc2nnc(NC(=O)[C@@H](OC(C)=O)c3ccccc3)s2)s1)c1ccccc1` [Compound 66], the figure is 20000 nM.
Turning to `COc1cccc(C(CO)C(=O)Nc2nnc(CCSCc3nnc(NC(=O)C(CO)c4cccc(OC)c4)s3)s2)c1` (stereo not shown) [Compound 258], the IC50 (no preincubation) was 190 nM.
`O=C(Cc1ccccc1)Nc1nnc(CCCCc2nnc(NC(=O)[C@@H]3CCCC[C@H]3C(O)c3ccccc3)s2)s1` (stereo partly shown) [Compound 304]: the IC50 (no preincubation) was 1200 nM.
On the same count and under the same terms, next, `O=C(Cc1ccccn1)Nc1nnc(CCSCCc2nnc(NC(=O)Cc3ccccn3)s2)s1` [Compound 308]: 600 nM; `O=C(Nc1nnc(CCCCc2nnc(NC(=O)C3(c4ccccc4)CCOCC3)s2)s1)C1(c2ccccc2)CCOCC1` [Compound 166]: 7400 nM; `O=C(CN1C(=O)OC[C@@H]1c1ccccc1)Nc1nnc(CCSCCc2nnc(NC(=O)CN3C(=O)OC[C@@H]3c3ccccc3)s2)s1` [Compound 197]: 6900 nM.
The same measure, in the same setting: as for `CN(C)c1ccc(CC(=O)Nc2nnc(CCSCCc3nnc(NC(=O)Cc4ccc(N(C)C)cc4)s3)s2)cc1` [Compound 162], the figure is 230 nM; as for `COC(C(=O)Nc1nnc(CCSCCc2nnc(NC(=O)C(OC)c3ccccc3)s2)s1)c1ccccc1` (stereo not shown) [Compound 67], 3000 nM; as for `COCC(C(=O)Nc1nnc(CCSCCc2nnc(NC(=O)C(COC)c3ccccc3)s2)s1)c1ccccc1` (stereo not shown) [Compound 204], 920 nM.
As for `COc1ccc(CC(=O)Nc2nnc(CCCCc3nnc(NC(=O)Cc4ccc(OC)c(OC)c4)s3)s2)cc1OC` [Compound 160], where the note is “no preincubation”, the IC50 worked out at 160 nM.
Same read-out and setting: as for `CC(=O)NCC(C(=O)Nc1nnc(CCSCCc2nnc(NC(=O)C(CNC(C)=O)c3ccccc3)s2)s1)c1ccccc1` (stereo not shown) [Compound 232], the figure is 9800 nM; as for `O=C(Nc1nnc(CCCCc2nnc(NC(=O)C3(c4cccs4)CCOCC3)s2)s1)C1(c2cccs2)CCOCC1` [Compound 167], 11000 nM; as for `O=C(CC1CCNCC1)Nc1nnc(CCSCCc2nnc(NC(=O)CC3CCNCC3)s2)s1` [Compound 129], above 20000 nM.
Take `O=C(Cc1coc2ccccc12)Nc1nnc(CCSCCc2nnc(NC(=O)Cc3coc4ccccc34)s2)s1` [Compound 221]: the IC50 (no preincubation) is above 20000 nM.
For `CN(C)C(Cc1ccccc1)C(=O)Nc1nnc(CCCCc2nnc(NC(=O)C(Cc3ccccc3)N(C)C)s2)s1` (stereo not shown) [Compound 89], the IC50 (no preincubation) is above 20000 nM.
Same read-out and setting: next, `COC(C(=O)Nc1nnc(CCCCc2nnc(NC(=O)C(OC)c3ccccc3)s2)s1)c1ccccc1` (stereo not shown) [Compound 65]: 1300 nM.
Still for that read-out and setting: as for `O=C(Cc1ccccc1Br)Nc1nnc(CCSCCc2nnc(NC(=O)Cc3ccccc3Br)s2)s1` [Compound 283], the figure is 660 nM; as for `O=C(Nc1nnc(CCCCCc2nnc(NC(=O)C(CO)c3ccccc3)s2)s1)C(CO)c1ccccc1` (stereo not shown) [Compound 30], 1200 nM.
Still for that read-out and setting: as for `CCOC(=O)Nc1nnc(CCCCc2nnc(NC(=O)Cc3ccccc3)s2)s1` [Compound 369], the figure is 810 nM; as for `CC1(C)O[C@H](C(=O)Nc2nnc(CCCCc3nnc(NC(=O)[C@H]4OC(C)(C)O[C@@H]4c4ccccc4)s3)s2)[C@@H](c2ccccc2)O1` [Compound 224], above 20000 nM.
Regarding `O=C(Cc1ccco1)Nc1nnc(CCCCc2nnc(NC(=O)Cc3ccco3)s2)s1` [Compound 86], the IC50 (no preincubation) was determined as 320 nM.
In the case of `O=C(Nc1nnc(CCCCc2nnc(NC(=O)C(c3ccccc3)N3CCNCC3)s2)s1)C(c1ccccc1)N1CCNCC1` (stereo not shown) [Compound 77], the IC50 (no preincubation) was found to be 6100 nM.
The same measure, in the same setting: next, `COCC(C(=O)Nc1nnc(CCCCc2nnc(NC(=O)C(COC)c3ccccc3)s2)s1)c1ccccc1` (stereo not shown) [Compound 165]: 510 nM; `O=C(Cc1ccco1)Nc1nnc(CCSCCc2nnc(NC(=O)Cc3ccco3)s2)s1` [Compound 82]: 800 nM; `CC(C)(C)c1ccc(CC(=O)Nc2nnc(CCSCCc3nnc(NC(=O)Cc4ccc(C(C)(C)C)cc4)s3)s2)cc1` [Compound 184]: above 20000 nM.
With `O=C(Cc1ccccc1)Nc1nnc(CCCCc2nnc(NC(=O)C(O)(CO)c3ccccc3)s2)s1` (stereo not shown) [Compound 280], the IC50 (no preincubation) is 290 nM.
The same measure, in the same setting: as for `CC(CCC(C)c1nnc(NC(=O)Cc2ccccc2)s1)c1nnc(NC(=O)Cc2ccccc2)s1` (stereo not shown) [Compound 289], the figure is 32000 nM; as for `O=C(C[C@@H](O)C(=O)O)Nc1nnc(CCCCc2nnc(NC(=O)C[C@@H](O)C(=O)O)s2)s1` [Compound 154], 19000 nM.
The same measure, in the same setting: as for `CC(C)[C@H](NC(=O)OC(C)(C)C)C(=O)Nc1nnc(CCSCCc2nnc(NC(=O)[C@@H](NC(=O)OC(C)(C)C)C(C)C)s2)s1` [Compound 34], the figure is above 50000 nM; as for `O=C(Nc1nnc(CCCCc2nnc(NC(=O)[C@H](O)[C@@H](O)c3ccccc3)s2)s1)[C@H](O)[C@@H](O)c1ccccc1` [Compound 225], above 20000 nM; as for `O=C(Cc1cccc(-n2ccnc2)c1)Nc1nnc(CCCCc2nnc(NC(=O)Cc3cccc(-n4ccnc4)c3)s2)s1` [Compound 363], 65 nM.
On the same count and under the same terms, as for `CC(C)[C@H](NC(=O)OC(C)(C)C)C(=O)OCC(C(=O)Nc1nnc(CCCCc2nnc(NC(=O)C(COC(=O)[C@@H](NC(=O)OC(C)(C)C)C(C)C)c3ccccc3)s2)s1)c1ccccc1` (stereo partly shown) [Compound 272], the figure is above 20000 nM; as for `O=C(Cc1ccccc1F)Nc1nnc(CCCCc2nnc(NC(=O)Cc3ccccc3F)s2)s1` [Compound 292], 120 nM; as for `CC(=O)OC(C(=O)Nc1nnc(CCCc2nnc(NC(=O)C(OC(C)=O)c3ccccc3)s2)s1)c1ccccc1` (stereo not shown) [Compound 171], above 20000 nM.
With `O=C(Cn1cccn1)Nc1nnc(CCCCc2nnc(NC(=O)Cn3cccn3)s2)s1` [Compound 60], the IC50 (no preincubation) stood at 24000 nM.
The same measure, in the same setting: next, `O=C(Cc1ccsc1)Nc1nnc(CCCCc2nnc(NC(=O)Cc3ccsc3)s2)s1` [Compound 88]: 200 nM; `CC(CCc1nnc(NC(=O)Cc2ccccc2)s1)CCc1nnc(NC(=O)Cc2ccccc2)s1` [Compound 9]: above 50000 nM.
The same measure, in the same setting: as for `O=C(Cc1ccccc1)Nc1ccc(CCCCc2nnc(NC(=O)C(OC(=O)CCN3CCOCC3)c3ccccc3)s2)nn1` (stereo not shown) [Compound 334], the figure is 640 nM.
